Structures can show the parent of a compound that is named as a salt. Where two headings read alike, the source gives them in different places.
Key:
Assay type in all cases: physicochemical
[1] = Solubility measurements (solvent aliquot addition, visual inspection)
Description: A weighed sample was treated with aliquots of the test solvent at room temperature or elevated temperature. Complete dissolution of the test material was determined by visual inspection. Solubility was estimated based on the total solvent used to provide complete dissolution. The actual solubility may be greater than the value calculated because of the use of solvent aliquots that were too large or due to a slow rate of dissolution. […] If complete dissolution was achieved as a result of only one aliquot addition, the solubility is expressed as “greater than.”

[2] = Stress experiments (temperature or relative humidity, XRPD after stress)
Description: Stress Experiments. Solids were stressed under different temperature or relative humidity (RH) environments for a measured time period. Specific RH values were achieved by placing the sample inside sealed chambers containing saturated salt solutions. The salt solutions were selected and prepared following an ASTM standard procedure. Samples were analyzed by XRPD immediately after removal from the stress environment.
(§1) X-ray powder diffraction analyses were performed on an Inel XRG-3000 diffractometer, equipped with a curved position-sensitive detector with a […] of 120°. Real time data was collected using Cu Kα radiation starting at approximately 4 ° 2θ at a resolution of 0.03 ° 2θ. The tube voltage and amperage were set to 40 kV and 30 mA, respectively. […] Samples were prepared for analysis by packing them into thin-walled glass capillaries. Each capillary was mounted onto a goniometer head that is motorized to permit spinning of the capillary during data acquisition. Instrument calibration was performed daily using a silicon reference standard.

[3] = Dynamic vapor sorption/desorption (moisture balance); details: for post-moisture balance XRPD (resulting material): after sorption/desorption cycle 5-95-5% RH; for weight loss upon initial equilibration: equilibrium at 5% RH; for weight gain on sorption / water corresponding to the weight gain on sorption: from 5 to 95% RH; for weight loss on desorption: from 95 to 5% RH
Description: Data were collected on a VTI SGA-100 moisture balance system. For sorption isotherms, a sorption range of about 5 to about 95% relative humidity (RH) and a desorption range of about 95 to about 5% RH in 10% RH increments were used for analysis. The samples were not dried prior to analysis. Equilibrium criteria used for analysis were less than 0.0100% weight change in 5 minutes with a maximum equilibration time of 3 hours if the weight criterion was not met. Data were not corrected for the initial moisture content of the samples.

[4] = Mechanical stress studies (compression, grinding, milling; XRPD after stress)
Description: Grinding. […] […] The solids were isolated and analyzed.
as §1

[5] = Oven: 40° C., 4 days, listed as A
[6] = 75% RH, ambient temperature, 2 and 4 days

CC(C)(C)c1cc(NC(=O)Nc2ccc(-c3cn4c(n3)sc3cc(OCCN5CCOCC5)ccc34)cc2)no1 [Form A of the HCl salt of Compound B1, N-(5-tert-butyl-isoxazol-3-yl)-N′-{4-[7-(2-morpholin-4-yl-ethoxy)imidazo[2,1-b][1,3]benzothiazol-2-yl]phenyl}urea]
solubility ([1]; 1,4-dioxane, organic solvent or mixture, thermodynamic from solid, 1,4-Dioxane, Ambient, read-out: Approximate Solubility): < 2000 µg/mL | solubility ([1]; 2-butanone, organic solvent or mixture, thermodynamic from solid, 2-Butanone, Ambient, read-out: Approximate Solubility): < 2000 µg/mL | solubility ([1]; acetone, organic solvent or mixture, thermodynamic from solid, Acetone, Ambient, read-out: Approximate Solubility): < 2000 µg/mL | solubility ([1]; acetonitrile, organic solvent or mixture, thermodynamic from solid, Acetonitrile (ACN), Ambient, read-out: Approximate Solubility): < 2000 µg/mL | solubility ([1]; acetonitrile/water (1:1), 60 °C, aqueous with cosolvent or surfactant or cyclodextrin, thermodynamic from solid, ACN/water (1:1), 60° C., read-out: Approximate Solubility): ≥ 110000 µg/mL | solubility ([1]; dichloromethane, organic solvent or mixture, thermodynamic from solid, Dichloromethane (DCM), Ambient, read-out: Approximate Solubility): < 2000 µg/mL | solubility ([1]; ethanol, organic solvent or mixture, thermodynamic from solid, Ethanol (EtOH), Ambient, read-out: Approximate Solubility): 1000 µg/mL | solubility ([1]; ethanol/water (4:1), 60 °C, organic solvent or mixture, thermodynamic from solid, Ethanol/water (4:1), 60° C., read-out: Approximate Solubility): ≥ 39000 µg/mL | solubility ([1]; ethanol/water (24:1), 60 °C, organic solvent or mixture, thermodynamic from solid, Ethanol/water (24:1), 60° C., read-out: Approximate Solubility): < 2000 µg/mL | solubility ([1]; ethyl acetate, organic solvent or mixture, thermodynamic from solid, Ethyl Acetate (EtOAc), Ambient, read-out: Approximate Solubility): < 2000 µg/mL | solubility ([1]; isopropanol, organic solvent or mixture, thermodynamic from solid, Isopropanol (IPA), Ambient, read-out: Approximate Solubility): < 2000 µg/mL | solubility ([1]; isopropanol/water (24:1), 60 °C, organic solvent or mixture, thermodynamic from solid, Isopropanol/water (24:1), 60° C., read-out: Approximate Solubility): < 2000 µg/mL | solubility ([1]; methanol, organic solvent or mixture, thermodynamic from solid, Methanol (MeOH), Ambient, read-out: Approximate Solubility): 3000 µg/mL | solubility ([1]; nitromethane, organic solvent or mixture, thermodynamic from solid, Nitromethane, Ambient, read-out: Approximate Solubility): < 2000 µg/mL | solubility ([1]; tetrahydrofuran, organic solvent or mixture, thermodynamic from solid, Tetrahydrofuran (THF), Ambient, read-out: Approximate Solubility): < 2000 µg/mL | solubility ([1]; trifluoroethanol, organic solvent or mixture, thermodynamic from solid, Trifluoroethanol (TFE), Ambient, read-out: Approximate Solubility): > 72000 µg/mL | solubility ([1]; trifluorotoluene, organic solvent or mixture, thermodynamic from solid, Trifluorotoluene (TFT), Ambient, read-out: Approximate Solubility): < 2000 µg/mL | solubility ([1]; water, thermodynamic from solid, Water, Ambient, certain samples formed a gel upon addition of water, actual solubility may differ substantially, read-out: Approximate Solubility): 36000 µg/mL | weight gain ([2]; 75% RH, 1 day): 1 day: 4.2% weight gain | weight gain ([2]; 75% RH, 2 days): 2 days: 3.8% weight gain | XRPD Result after stress ([2]; 75% RH, ambient temperature, 4 days): Form D | XRPD Result after stress ([2]; Oven: 40° C., 4 days): mixture of Form A and Form E | XRPD Result after stress [2, 5]: A + E | weight loss [2, 5]: 4 days: 3.0% weight loss | post-moisture balance XRPD (resulting material) [3]: Form D | post-moisture balance XRPD (resulting material) ([3]; listed as A): FORM D | weight loss upon initial equilibration [3]: about 3.9% | weight loss upon initial equilibration ([3]; listed as A): ~3.9% WEIGHT LOSS UPON EQUILIBRIUM | weight gain on sorption [3]: about 16.7% | water corresponding to the weight gain on sorption ([3]; listed as A): CORRESPONDING TO 6.5 MOLES OF WATER. | weight gain on sorption ([3]; listed as A): ~16.7% WEIGHT GAIN FROM 5 TO 95% RH, | weight loss on desorption [3]: about 16.7% | weight loss on desorption ([3]; listed as A): ~16.6% WEIGHT LOSS FROM 95 TO 5% RH.

CC(C)(C)c1cc(NC(=O)Nc2ccc(-c3cn4c(n3)sc3cc(OCCN5CCOCC5)ccc34)cc2)no1 [Form B of the HCl salt of Compound B1, N-(5-tert-butyl-isoxazol-3-yl)-N′-{4-[7-(2-morpholin-4-yl-ethoxy)imidazo[2,1-b][1,3]benzothiazol-2-yl]phenyl}urea]
APPROXIMATE SOLUBILITY ([1]; 2,2,2-TRIFLUOROETHANOL, 67 ° C.): 53 mg/mL | APPROXIMATE SOLUBILITY ([1]; 2,2,2-TRIFLUOROETHANOL, AMBIENT): 52 mg/mL | APPROXIMATE SOLUBILITY ([1]; 2-BUTANONE (MEK), 62 ° C.): <1 mg/mL | APPROXIMATE SOLUBILITY ([1]; 2-BUTANONE (MEK), AMBIENT): <1 mg/mL | APPROXIMATE SOLUBILITY ([1]; ACETONE, 54 ° C.): <1 mg/mL | APPROXIMATE SOLUBILITY ([1]; ACETONE, AMBIENT): <1 mg/mL | APPROXIMATE SOLUBILITY ([1]; ACETONE:WATER 50:50, AMBIENT): 13 mg/mL | APPROXIMATE SOLUBILITY ([1]; ACETONITRILE, 60 ° C.): <1 mg/mL | APPROXIMATE SOLUBILITY ([1]; ACETONITRILE, AMBIENT): <1 mg/mL | APPROXIMATE SOLUBILITY ([1]; ACETONITRILE:WATER 50:50, AMBIENT): 51 mg/mL | APPROXIMATE SOLUBILITY ([1]; DICHLOROMETHANE, AMBIENT): <1 mg/mL | APPROXIMATE SOLUBILITY ([1]; DIOXANE:WATER 50:50, 62 ° C.): 23 mg/mL | APPROXIMATE SOLUBILITY ([1]; ETHANOL, 60 ° C.): <2 mg/mL | APPROXIMATE SOLUBILITY ([1]; ETHANOL, AMBIENT): <1 mg/mL | APPROXIMATE SOLUBILITY ([1]; ETHANOL:WATER 50:50, AMBIENT): 13 mg/mL | APPROXIMATE SOLUBILITY ([1]; ETHYL ACETATE, AMBIENT): <1 mg/mL | APPROXIMATE SOLUBILITY ([1]; ISOPROPANOL, 63 ° C.): <1 mg/mL | APPROXIMATE SOLUBILITY ([1]; ISOPROPANOL, AMBIENT): <1 mg/mL | APPROXIMATE SOLUBILITY ([1]; ISOPROPANOL:WATER 20:80, 62 ° C.): 54 mg/mL | APPROXIMATE SOLUBILITY ([1]; ISOPROPANOL:WATER 20:80, AMBIENT): 5 mg/mL | APPROXIMATE SOLUBILITY ([1]; METHANOL, 62 ° C.): 2 mg/mL | APPROXIMATE SOLUBILITY ([1]; METHANOL, AMBIENT): 1 mg/mL | APPROXIMATE SOLUBILITY ([1]; NITROMETHANE, 64 ° C.): <1 mg/mL | APPROXIMATE SOLUBILITY ([1]; NITROMETHANE, AMBIENT): <1 mg/mL | APPROXIMATE SOLUBILITY ([1]; P-DIOXANE, 63 ° C.): <1 mg/mL | APPROXIMATE SOLUBILITY ([1]; P-DIOXANE, AMBIENT): <1 mg/mL | APPROXIMATE SOLUBILITY ([1]; P-DIOXANE:WATER 50:50, AMBIENT): 6 mg/mL | APPROXIMATE SOLUBILITY ([1]; TETRAHYDROFURAN, 64 ° C.): <1 mg/mL | APPROXIMATE SOLUBILITY ([1]; TETRAHYDROFURAN, AMBIENT): <1 mg/mL | APPROXIMATE SOLUBILITY ([1]; TETRAHYDROFURAN:WATER 50:50, AMBIENT): 24 mg/mL | APPROXIMATE SOLUBILITY ([1]; TRIFLUOROTOLUENE, AMBIENT): <1 mg/mL | solubility ([1]; water, 68 °C, water, thermodynamic from solid, WATER, 68 ° C., read-out: APPROXIMATE SOLUBILITY): < 3000 µg/mL | solubility ([1]; water, thermodynamic from solid, WATER, AMBIENT, read-out: APPROXIMATE SOLUBILITY): ≥ 1000 µg/mL | XRPD Result after stress [2, 6]: Form B | weight change [2, 6]: no substantial weight change | weight change ([2]; 75% RH, ambient temperature, 2 and 4 days, listed as B): 2 and 4 days: no weight | XRPD RESULT after mechanical stress ([4]; GRIND WITH MORTAR AND PESTLE, WATER, 1 MIN): B + SMALL PEAK | XRPD RESULT after mechanical stress ([4]; MILLING, 2,2,2-TRIFLUOROETHANOL, 10 MIN): B + LARGE PEAK | post-moisture balance XRPD (resulting material) [3]: Form B | post-moisture balance XRPD (resulting material) ([3]; listed as B): FORM B | weight loss upon initial equilibration [3]: about 0.6% | water corresponding to the mass gain on sorption ([3]; from 5% to 95% RH): about 1.2 molar equivalents of water | weight gain on sorption [3]: about 3.6% | water corresponding to the weight gain on sorption ([3]; listed as B): ~1.2 MOLES OF WATER FROM ~5 TO ~95% | weight gain on sorption ([3]; listed as B): ~3.6% WEIGHT GAIN, CORRESPONDING TO | weight loss on desorption [3]: about 3.6% | weight loss on desorption ([3]; listed as B): RH, ~3.2% WEIGHT LOSS FROM ~95 TO ~5%
